# Results as given in patent publication US10131652B2, “Pyrimidinyloxy benzene derivatives as herbicides” (E. I. DU PONT DE NEMOURS AND COMPANY, priority 2014, dated 2018).
# Legend:
# Test in all cases: Test D pre-/postemergence plant response
# Format in all cases: in vivo
# [1] = system: Italian ryegrass (Lolium multiflorum); details: for Plant response rating, Ryegrass, Italian: Preemergence
# Method in brief: (§1)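 Seeds sown in loam–sand blend got preemergence sprays of test chemicals in a non-phytotoxic solvent with surfactant; postemergence sprays went on plants at 1- to 4-leaf stage (2 to 18 cm) in peat/vermiculite medium. After 13 to 15 days in greenhouse, visual injury versus controls scored 0 (no effect) to 100 (complete control).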
# [2] = system: barnyardgrass (Echinochloa crus-galli); details: for Plant response rating (scale 0 to 100), Barnyardgrass / Barnyardgrass plant response rating: Postemergence; for Barnyardgrass plant response rating / Plant response rating, Barnyardgrass: scale 0 to 100 (0 no effect, 100 complete control); for Plant response rating, Barnyardgrass: Preemergence
# Method in brief: as §1
# [3] = system: blackgrass (Alopecurus myosuroides); details: for Plant response rating (scale 0 to 100), Blackgrass / Blackgrass plant response rating: Postemergence; for Blackgrass plant response rating / Plant response rating, Blackgrass: scale 0 to 100 (0 no effect, 100 complete control); for Plant response rating, Blackgrass: Preemergence
# Method in brief: as §1
# [4] = system: corn (Zea mays); details: for Plant response rating (scale 0 to 100), Corn / Corn plant response rating: Postemergence; for Corn plant response rating / Plant response rating, Corn: scale 0 to 100 (0 no effect, 100 complete control); for Plant response rating, Corn: Preemergence
# Method in brief: as §1
# [5] = system: galium (catchweed bedstraw, Galium aparine); details: for Plant response rating, Galium: Preemergence
# Method in brief: as §1
# [6] = system: giant foxtail (Setaria faberii); details: for Plant response rating (scale 0 to 100), Foxtail, Giant / Foxtail, Giant plant response rating: Postemergence; for Foxtail, Giant plant response rating / Plant response rating, Foxtail, Giant: scale 0 to 100 (0 no effect, 100 complete control); for Plant response rating, Foxtail, Giant: Preemergence
# Method in brief: as §1
# [7] = system: johnsongrass (Sorghum halepense); details: for Plant response rating, Johnsongrass: Preemergence
# Method in brief: as §1
# [8] = system: lambsquarters (Chenopodium album); details: for Plant response rating, Lambsquarters: Preemergence
# Method in brief: as §1
# [9] = system: large (Lg) crabgrass (Digitaria sanguinalis); details: for Plant response rating (scale 0 to 100), Crabgrass, Large / Crabgrass, Large plant response rating: Postemergence; for Crabgrass, Large plant response rating / Plant response rating, Crabgrass, Large: scale 0 to 100 (0 no effect, 100 complete control); for Plant response rating, Crabgrass, Large: Preemergence
# Method in brief: as §1
# [10] = system: morningglory (Ipomoea coccinea); details: for Plant response rating, Morningglory: Preemergence
# Method in brief: as §1
# [11] = system: oilseed rape (Brassica napus); details: for Plant response rating, Oilseed Rape: Preemergence
# Method in brief: as §1
# [12] = system: pigweed (Amaranthus retroflexus); details: for Plant response rating, Pigweed: Preemergence
# Method in brief: as §1
# [13] = system: ragweed (common ragweed, Ambrosia elatior); details: for Plant response rating, Ragweed: Preemergence
# Method in brief: as §1
# [14] = system: soybean (Glycine max); details: for Plant response rating, Soybean: Preemergence
# Method in brief: as §1
# [15] = system: velvetleaf (Abutilon theophrasti); details: for Plant response rating, Velvetleaf: Preemergence
# Method in brief: as §1
# [16] = system: waterhemp (common waterhemp, Amaranthus rudis); details: for Plant response rating, Waterhemp: Preemergence
# Method in brief: as §1
# [17] = system: winter wheat (Triticum aestivum); details: for Plant response rating, Wheat: Preemergence
# Method in brief: as §1
# [18] = system: yellow nutsedge (Cyperus esculentus); details: for Plant response rating, Nutsedge, Yellow: Preemergence
# Method in brief: as §1
# [19] = Postemergence, 31 g ai/ha, scale 0 to 100 (0 no effect, 100 complete control)
# [20] = 4 g ai/ha, scale 0 to 100 (0 no effect, 100 complete control)
# [21] = 8 g ai/ha, scale 0 to 100 (0 no effect, 100 complete control)
# [22] = 16 g ai/ha, scale 0 to 100 (0 no effect, 100 complete control)
# [23] = 31 g ai/ha, scale 0 to 100 (0 no effect, 100 complete control)
structure (smiles),measurement,setting,value
N#Cc1cccc(Oc2ncc(Cl)cn2)c1-c1cc(C(F)(F)F)on1 [Compound 157],"Plant response rating (scale 0 to 100), Ryegrass, Italian","[1]; Postemergence, 4 g ai/ha",0
same,"Plant response rating (scale 0 to 100), Ryegrass, Italian","[1]; Postemergence, 8 g ai/ha",0
same,"Ryegrass, Italian plant response rating",[1]; [19],5
same,"Plant response rating, Ryegrass, Italian",[1]; [20],0
same,"Plant response rating, Ryegrass, Italian",[1]; [21],0
same,"Plant response rating, Ryegrass, Italian",[1]; [22],0
same,"Plant response rating, Ryegrass, Italian",[1]; [23],5
same,"Plant response rating (scale 0 to 100), Barnyardgrass",[2]; 4 g ai/ha,0
same,"Plant response rating (scale 0 to 100), Barnyardgrass",[2]; 8 g ai/ha,0
same,Barnyardgrass plant response rating,[2]; 16 g ai/ha,5
same,Barnyardgrass plant response rating,[2]; 31 g ai/ha,5
same,"Plant response rating, Barnyardgrass",[2]; 4 g ai/ha,0
same,"Plant response rating, Barnyardgrass",[2]; 8 g ai/ha,0
same,"Plant response rating, Barnyardgrass",[2]; 16 g ai/ha,0
same,"Plant response rating, Barnyardgrass",[2]; 31 g ai/ha,5
same,"Plant response rating (scale 0 to 100), Blackgrass",[3]; 4 g ai/ha,0
same,"Plant response rating (scale 0 to 100), Blackgrass",[3]; 8 g ai/ha,0
same,Blackgrass plant response rating,[3]; 16 g ai/ha,5
same,Blackgrass plant response rating,[3]; 31 g ai/ha,5
same,"Plant response rating, Blackgrass",[3]; 4 g ai/ha,0
same,"Plant response rating, Blackgrass",[3]; 8 g ai/ha,0
same,"Plant response rating, Blackgrass",[3]; 16 g ai/ha,0
same,"Plant response rating, Blackgrass",[3]; 31 g ai/ha,5
same,"Plant response rating (scale 0 to 100), Corn",[4]; 4 g ai/ha,0
same,"Plant response rating (scale 0 to 100), Corn",[4]; 8 g ai/ha,0
same,Corn plant response rating,[4]; 16 g ai/ha,5
same,Corn plant response rating,[4]; 31 g ai/ha,5
same,"Plant response rating, Corn",[4]; 4 g ai/ha,0
same,"Plant response rating, Corn",[4]; 8 g ai/ha,0
same,"Plant response rating, Corn",[4]; 16 g ai/ha,5
same,"Plant response rating, Corn",[4]; 31 g ai/ha,0
same,"Plant response rating (scale 0 to 100), Galium","[5]; Postemergence, 4 g ai/ha",10
same,"Plant response rating (scale 0 to 100), Galium","[5]; Postemergence, 8 g ai/ha",50
same,Galium plant response rating,[5]; [19],70
same,"Plant response rating, Galium",[5]; [20],70
same,"Plant response rating, Galium",[5]; [21],80
same,"Plant response rating, Galium",[5]; [22],80
same,"Plant response rating, Galium",[5]; [23],85
same,"Plant response rating (scale 0 to 100), Foxtail, Giant",[6]; 4 g ai/ha,0
same,"Plant response rating (scale 0 to 100), Foxtail, Giant",[6]; 8 g ai/ha,20
same,"Foxtail, Giant plant response rating",[6]; 16 g ai/ha,40
same,"Foxtail, Giant plant response rating",[6]; 31 g ai/ha,20
same,"Plant response rating, Foxtail, Giant",[6]; 4 g ai/ha,0
same,"Plant response rating, Foxtail, Giant",[6]; 8 g ai/ha,0
same,"Plant response rating, Foxtail, Giant",[6]; 16 g ai/ha,0
same,"Plant response rating, Foxtail, Giant",[6]; 31 g ai/ha,20
same,"Plant response rating (scale 0 to 100), Johnsongrass","[7]; Postemergence, 4 g ai/ha",0
same,"Plant response rating (scale 0 to 100), Johnsongrass","[7]; Postemergence, 8 g ai/ha",0
same,Johnsongrass plant response rating,[7]; [19],0
same,"Plant response rating, Johnsongrass",[7]; [20],0
same,"Plant response rating, Johnsongrass",[7]; [21],0
same,"Plant response rating, Johnsongrass",[7]; [22],0
same,"Plant response rating, Johnsongrass",[7]; [23],5
same,"Plant response rating (scale 0 to 100), Lambsquarters","[8]; Postemergence, 4 g ai/ha",20
same,"Plant response rating (scale 0 to 100), Lambsquarters","[8]; Postemergence, 8 g ai/ha",25
same,Lambsquarters plant response rating,[8]; [19],55
same,"Plant response rating, Lambsquarters",[8]; [20],0
same,"Plant response rating, Lambsquarters",[8]; [21],25
same,"Plant response rating, Lambsquarters",[8]; [22],100
same,"Plant response rating, Lambsquarters",[8]; [23],100
same,"Plant response rating (scale 0 to 100), Crabgrass, Large",[9]; 4 g ai/ha,0
same,"Plant response rating (scale 0 to 100), Crabgrass, Large",[9]; 8 g ai/ha,5
same,"Crabgrass, Large plant response rating",[9]; 16 g ai/ha,5
same,"Crabgrass, Large plant response rating",[9]; 31 g ai/ha,5
same,"Plant response rating, Crabgrass, Large",[9]; 4 g ai/ha,0
same,"Plant response rating, Crabgrass, Large",[9]; 8 g ai/ha,0
same,"Plant response rating, Crabgrass, Large",[9]; 16 g ai/ha,5
same,"Plant response rating, Crabgrass, Large",[9]; 31 g ai/ha,40
same,"Plant response rating (scale 0 to 100), Morningglory","[10]; Postemergence, 4 g ai/ha",0
same,"Plant response rating (scale 0 to 100), Morningglory","[10]; Postemergence, 8 g ai/ha",5
same,Morningglory plant response rating,[10]; [19],35
same,"Plant response rating, Morningglory",[10]; [20],0
same,"Plant response rating, Morningglory",[10]; [21],0
same,"Plant response rating, Morningglory",[10]; [22],0
same,"Plant response rating, Morningglory",[10]; [23],10
same,"Plant response rating (scale 0 to 100), Oilseed Rape","[11]; Postemergence, 4 g ai/ha",0
same,"Plant response rating (scale 0 to 100), Oilseed Rape","[11]; Postemergence, 8 g ai/ha",5
same,Oilseed Rape plant response rating,[11]; [19],25
same,"Plant response rating, Oilseed Rape",[11]; [20],0
same,"Plant response rating, Oilseed Rape",[11]; [21],0
same,"Plant response rating, Oilseed Rape",[11]; [22],40
same,"Plant response rating, Oilseed Rape",[11]; [23],100
same,"Plant response rating (scale 0 to 100), Pigweed","[12]; Postemergence, 4 g ai/ha",35
same,"Plant response rating (scale 0 to 100), Pigweed","[12]; Postemergence, 8 g ai/ha",70
same,Pigweed plant response rating,[12]; [19],65
same,"Plant response rating, Pigweed",[12]; [20],20
same,"Plant response rating, Pigweed",[12]; [21],100
same,"Plant response rating, Pigweed",[12]; [22],100
same,"Plant response rating, Pigweed",[12]; [23],100
same,"Plant response rating (scale 0 to 100), Ragweed","[13]; Postemergence, 4 g ai/ha",50
same,"Plant response rating (scale 0 to 100), Ragweed","[13]; Postemergence, 8 g ai/ha",15
same,Ragweed plant response rating,[13]; [19],25
same,"Plant response rating, Ragweed",[13]; [20],0
same,"Plant response rating, Ragweed",[13]; [21],0
same,"Plant response rating, Ragweed",[13]; [22],0
same,"Plant response rating, Ragweed",[13]; [23],0
same,"Plant response rating (scale 0 to 100), Soybean","[14]; Postemergence, 4 g ai/ha",5
same,"Plant response rating (scale 0 to 100), Soybean","[14]; Postemergence, 8 g ai/ha",10
same,Soybean plant response rating,[14]; [19],35
same,"Plant response rating, Soybean",[14]; [20],0
same,"Plant response rating, Soybean",[14]; [21],0
same,"Plant response rating, Soybean",[14]; [22],0
same,"Plant response rating, Soybean",[14]; [23],50
same,"Plant response rating (scale 0 to 100), Velvetleaf","[15]; Postemergence, 4 g ai/ha",5
same,"Plant response rating (scale 0 to 100), Velvetleaf","[15]; Postemergence, 8 g ai/ha",5
same,Velvetleaf plant response rating,[15]; [19],40
same,"Plant response rating, Velvetleaf",[15]; [20],0
same,"Plant response rating, Velvetleaf",[15]; [21],5
same,"Plant response rating, Velvetleaf",[15]; [22],45
same,"Plant response rating, Velvetleaf",[15]; [23],75
same,"Plant response rating (scale 0 to 100), Waterhemp","[16]; Postemergence, 4 g ai/ha",20
same,"Plant response rating (scale 0 to 100), Waterhemp","[16]; Postemergence, 8 g ai/ha",55
same,Waterhemp plant response rating,[16]; [19],75
same,"Plant response rating, Waterhemp",[16]; [20],0
same,"Plant response rating, Waterhemp",[16]; [21],70
same,"Plant response rating, Waterhemp",[16]; [22],100
same,"Plant response rating, Waterhemp",[16]; [23],100
same,"Plant response rating (scale 0 to 100), Wheat","[17]; Postemergence, 4 g ai/ha",0
same,"Plant response rating (scale 0 to 100), Wheat","[17]; Postemergence, 8 g ai/ha",0
same,Wheat plant response rating,[17]; [19],0
same,"Plant response rating, Wheat",[17]; [20],0
same,"Plant response rating, Wheat",[17]; [21],0
same,"Plant response rating, Wheat",[17]; [22],0
same,"Plant response rating, Wheat",[17]; [23],5
same,"Plant response rating (scale 0 to 100), Nutsedge, Yellow","[18]; Postemergence, 4 g ai/ha",0
same,"Plant response rating (scale 0 to 100), Nutsedge, Yellow","[18]; Postemergence, 8 g ai/ha",5
same,"Nutsedge, Yellow plant response rating",[18]; [19],10
same,"Plant response rating, Nutsedge, Yellow",[18]; [20],0
same,"Plant response rating, Nutsedge, Yellow",[18]; [21],0
same,"Plant response rating, Nutsedge, Yellow",[18]; [22],0
same,"Plant response rating, Nutsedge, Yellow",[18]; [23],0
